According to patent US20150105252A1, “SUBSTITUTED PYRAZOLES AS HERBICIDES” (E I DU PONT DE NEMOURS AND COMPANY, priority 2013, published 2015):

Experiments:
[1] = test system: buckwheat, wild; test: Test E preemergence; type: in vivo, Polygonum convolvulus; settings: 21 days, scale 0 to 100
Excerpt: (§1) Seeds of plant species selected from bermudagrass (Cynodon dactylon), Surinam grass (Brachiaria decumbens), crabgrass, large (large crabgrass, Digitaria sanguinalis), crabgrass, naked (naked crabgrass, Digitaria nuda), foxtail, green (green foxtail, Setaria viridis), johnsongrass (Sorghum halepense), kochia (Kochia scoparia), morningglory (pitted morningglory, Ipomoea lacunosa), nutsedge, purple (purple nutsedge, Cyperus rotundus), ragweed (common ragweed, Ambrosia elation), mustard, black (black mustard, Brassica nigra), guineagrass (Panicum maximum), dallisgrass (Paspalum dilatatum), barnyardgrass (Echinochloa crus-galli), sandbur (southern sandbur, Cenchrus echinatus), sowthistle (common sowthistle, Sonchus oleraceous), ryegrass, Italian (Italian ryegrass, Lolium multiflorum), signalgrass (broadleaf signalgrass, Brachiaria platyphylla), dayflower, VA (Virginia (VA) dayflower, Commelina virginica), bluegrass (annual bluegrass, Poa annua), quackgrass (Elytrigia repens), mallow (common mallow, Malva sylvestris), buckwheat, wild (wild buckwheat, Polygonum convolvulus), leafy spurge (Euphorbia esula), common chickweed (Stellaria media), wild poinsettia (Euphorbia heterophylla), pigweed, palmer (palmer pigweed, Amaranthus palmeri), and pigweed (redroot pigweed, Amaranthus retroflexus) were planted into a blend of loam soil and sand and treated preemergence with test chemicals formulated in a non-phytotoxic solvent mixture which included a surfactant.
(§2) Treated plants and controls were maintained in a greenhouse for 21 days, after which time all species were compared to controls and visually evaluated. Plant response ratings, summarized in Table E, are based on a scale of 0 to 100 where 0 is no effect and 100 is complete control. A dash (-) response means no test result.

[2] = test system: mustard, black; test: Test E preemergence; type: in vivo, Brassica nigra; settings: 21 days, scale 0 to 100
Excerpt: as §1, §2

[3] = test system: crabgrass, Brazil; test: Test F postemergence; type: in vivo, Digitaria horizontalis; settings: scale 0 to 100
Excerpt: Seeds of plant species selected from corn (Zea mays), soybean (Glycine max), velvetleaf (Abutilon theophrasti), lambsquarters (Chenopodium album), wild poinsettia (Euphorbia heterophylla), pigweed, palmer (palmer pigweed, Amaranthus palmeri), common waterhemp (Amaranthus rudis), surinam grass (Brachiaria decumbens), large crabgrass (Digitaria sanguinalis), crabgrass, Brazil (Brazilian crabgrass, Digitaria horizontalis), fall panicum (Panicum dichotomiflorum), giant foxtail (Setaria faberii), green foxtail (Setaria viridis), goosegrass (Eleusine indica), johnsongrass (Sorghum halepense), common ragweed (Ambrosia elation), barnyardgrass (Echinochloa crus-galli), southern sandbur (Cenchrus echinatus), arrowleaf sida (Sida rhombifolia), Italian ryegrass (Lolium multiflorum), dayflower, VA (Virginia (VA) dayflower, Commelina virginica), field bindweed (Convolvulus arvensis), cocklebur (common cocklebur, Xanthium strumarium), morningglory (Ipomoea coccinea), nightshade (eastern black nightshade, Solanum ptycanthum), kochia (Kochia scoparia), yellow nutsedge (Cyperus esculentus), and hairy beggarticks (Bidens pilosa), were planted into a silt loam soil and treated preemergence with test chemicals formulated in a non-phytotoxic solvent mixture which included a surfactant.
At the same time, plants from these crop and weed species and also horseweed (Canada horseweed, Conyza canadensis), smartweed (ladysthumb smartweed, Polygonum persicaria), waterhemp_RES1, (ALS & Triazine resistant common waterhemp, Amaranthus rudis), and waterhemp_RES2, (ALS & HPPD resistant common waterhemp, Amaranthus rudis) were treated with postemergence applications of test chemicals formulated in the same manner. Plants ranged in height from 2 to 18 cm for postemergence treatments (1- to 4-leaf stage). Treated plants and controls were maintained in a greenhouse for 14 to 21 days, after which time all species were compared to controls and visually evaluated. Plant response ratings, summarized in Table F, are based on a scale of 0 to 100 where 0 is no effect and 100 is complete control. A dash (-) response means no test result.

[4] = test system: crabgrass, large; test: Test E preemergence; type: in vivo, Digitaria sanguinalis; settings: 21 days, scale 0 to 100
Excerpt: as §1, §2

[5] = test system: morningglory; test: Test E preemergence; type: in vivo, Ipomoea lacunosa; settings: 21 days, scale 0 to 100
Excerpt: as §1, §2

[6] = test system: ducksalad; test: Test C flooded paddy test; type: in vivo, Heteranthera limosa; settings: Flood
In short: (§3)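 Flooded 3 cm over soil; compound into paddy water; depth kept constant. Greenhouse 13–15 d.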

[7] = test system: barnyardgrass; test: Test C flooded paddy test; type: in vivo, Echinochloa crus-galli; settings: Flood
In short: as §3

[8] = 31 g ai/ha, scale 0 to 100 (0 no effect, 100 complete control)
[9] = 62 g ai/ha, scale 0 to 100 (0 no effect, 100 complete control)
[10] = 125 g ai/ha, scale 0 to 100 (0 no effect, 100 complete control)

Compound	Plant response rating, Buckwheat, Wild ([1]; 16 g ai/ha)	Plant response rating, Buckwheat, Wild ([1]; 31 g ai/ha)	Plant response rating, Buckwheat, Wild ([1]; 62 g ai/ha)	Plant response rating, Buckwheat, Wild ([1]; 125 g ai/ha)	Plant response rating, Buckwheat, Wild ([1]; 250 g ai/ha)	Plant response rating, Mustard, Black ([2]; 16 g ai/ha)	Plant response rating, Mustard, Black ([2]; 31 g ai/ha)	Plant response rating, Mustard, Black ([2]; 62 g ai/ha)	Plant response rating, Mustard, Black ([2]; 125 g ai/ha)	Plant response rating, Mustard, Black ([2]; 250 g ai/ha)	Plant response rating, Crabgrass, Large ([4]; 16 g ai/ha)	Plant response rating, Crabgrass, Large ([4]; 31 g ai/ha)	Plant response rating, Crabgrass, Large ([4]; 62 g ai/ha)	Plant response rating, Morningglory ([5]; 16 g ai/ha)	Plant response rating, Morningglory ([5]; 31 g ai/ha)	Plant response rating, Morningglory ([5]; 62 g ai/ha)	Plant response rating, Ducksalad [6, 8]	Plant response rating, Ducksalad [6, 9]	Plant response rating, Barnyardgrass [7, 8]	Plant response rating, Barnyardgrass [7, 9]	also measured
CCc1cc(C(=O)NCC(F)(F)F)nn1Cc1ccnc(C(F)(F)F)c1 [Compound 78, 5-ethyl-N-(2,2,2-trifluoroethyl)-1-[[(2-trifluoromethyl)-4-pyridinyl]methyl]-1H-pyrazole-3-carboxamide]	60	100	100	100	100	70	100	100	100	100	90	100	100	50	70	90					Plant response rating, Crabgrass, Brazil ([3]; Postemergence, 31 g ai/ha): 40; Plant response rating, Crabgrass, Brazil ([3]; Postemergence, 125 g ai/ha): 70; Plant response rating, Crabgrass, Brazil ([3]; Postemergence, 250 g ai/ha): 90; Plant response rating, Crabgrass, Brazil ([3]; postemergence, 62 g ai/ha): 40; Plant response rating, Crabgrass, Brazil ([3]; postemergence, 500 g ai/ha): 95; Plant response rating, Crabgrass, Large ([4]; 125 g ai/ha): 100; Plant response rating, Crabgrass, Large ([4]; 250 g ai/ha): 100; Plant response rating, Morningglory ([5]; 125 g ai/ha): 100; Plant response rating, Morningglory ([5]; 250 g ai/ha): 100
CCc1cc(C(=O)NC(C)C)nn1Cc1ccnc(C(F)(F)F)c1 [Compound 103]	95	100	100	100	100	100	100	100	100	100	100	100	100	95	100	100					Plant response rating, Crabgrass, Large ([4]; 125 g ai/ha): 100; Plant response rating, Crabgrass, Large ([4]; 250 g ai/ha): 100; Plant response rating, Morningglory ([5]; 125 g ai/ha): 100; Plant response rating, Morningglory ([5]; 250 g ai/ha): 100
CCOc1cc(C(=O)NCC(F)(F)F)nn1Cc1ccnc(C(F)(F)F)c1 [Compound 104]	100	100	100	100	100	100	100	100	100	100	100	100	100	98	98	100					Plant response rating, Crabgrass, Brazil ([3]; Postemergence, 31 g ai/ha): 40; Plant response rating, Crabgrass, Brazil ([3]; Postemergence, 125 g ai/ha): 60; Plant response rating, Crabgrass, Brazil ([3]; Postemergence, 250 g ai/ha): 90; Plant response rating, Crabgrass, Brazil ([3]; postemergence, 62 g ai/ha): 50; Plant response rating, Crabgrass, Brazil ([3]; postemergence, 500 g ai/ha): 95; Plant response rating, Crabgrass, Large ([4]; 125 g ai/ha): 100; Plant response rating, Crabgrass, Large ([4]; 250 g ai/ha): 100; Plant response rating, Morningglory ([5]; 125 g ai/ha): 100; Plant response rating, Morningglory ([5]; 250 g ai/ha): 100
CCCNC(=O)c1cc(CCCl)n(Cc2ccnc(C(F)(F)F)c2)n1 [Compound 145]																	100	100	0	0	Plant response rating, Ducksalad ([6]; 125 g ai/ha, scale 0 to 100): 100; Plant response rating, Ducksalad ([6]; 250 g ai/ha, scale 0 to 100): 100; Plant response rating, Barnyardgrass ([7]; 125 g ai/ha, scale 0 to 100): 30; Plant response rating, Barnyardgrass ([7]; 250 g ai/ha, scale 0 to 100): 40
CCOc1cc(C(=O)NC(C)C)nn1Cc1ccnc(C(F)(F)F)c1 [Compound 188]																					Plant response rating, Crabgrass, Brazil ([3]; Postemergence, 31 g ai/ha): 20; Plant response rating, Crabgrass, Brazil ([3]; Postemergence, 125 g ai/ha): 75; Plant response rating, Crabgrass, Brazil ([3]; Postemergence, 250 g ai/ha): 90; Plant response rating, Crabgrass, Brazil ([3]; postemergence, 62 g ai/ha): 30; Plant response rating, Crabgrass, Brazil ([3]; postemergence, 500 g ai/ha): 95
CCOc1cc(C(=O)NC2CC2)nn1Cc1ccnc(C(F)(F)F)c1 [Compound 189]	100	100	100			100	100	100			100	100	100	90	100	100					Plant response rating, Buckwheat, Wild ([1]; 4 g ai/ha): 70; Plant response rating, Buckwheat, Wild ([1]; 8 g ai/ha): 100; Plant response rating, Mustard, Black ([2]; 4 g ai/ha): 95; Plant response rating, Mustard, Black ([2]; 8 g ai/ha): 98; Plant response rating, Crabgrass, Large ([4]; 4 g ai/ha): 0; Plant response rating, Crabgrass, Large ([4]; 8 g ai/ha): 95; Plant response rating, Morningglory ([5]; 4 g ai/ha): 0; Plant response rating, Morningglory ([5]; 8 g ai/ha): 30
CCONC(=O)c1cc(OCC)n(Cc2ccnc(C(F)(F)F)c2)n1 [Compound 195]																	0	20	0	30	Plant response rating, Ducksalad [6, 10]: 85; Plant response rating, Ducksalad ([6]; 250 g ai/ha, scale 0 to 100): 85; Plant response rating, Barnyardgrass [7, 10]: 40; Plant response rating, Barnyardgrass ([7]; 250 g ai/ha, scale 0 to 100): 45
CCc1cc(C(=O)NC2CC2)nn1Cc1ccnc(OCC(F)(F)F)c1 [Compound 200]																	30	30	0	0	Plant response rating, Ducksalad [6, 10]: 100; Plant response rating, Ducksalad ([6]; 250 g ai/ha, scale 0 to 100): 100; Plant response rating, Barnyardgrass [7, 10]: 20; Plant response rating, Barnyardgrass ([7]; 250 g ai/ha, scale 0 to 100): 40
CCc1cc(C(=O)NC2CC2)nn1Cc1cc(C(F)(F)C(F)(F)F)nn1C [Compound 226]																	30	60	0	0	Plant response rating, Ducksalad [6, 10]: 75; Plant response rating, Barnyardgrass [7, 10]: 0
